The record followed here is patent US20140243335A1, “SUBSTITUTED HYDOXAMIC ACIDS AND USES THEREOF” (Millennium Pharmaceuticals, Inc., priority 2010, published 2014).

Structures are written as SMILES.

This test has as its target T1, purified human HDAC6 (Homo sapiens, UniProt Q9UBN7).
T1 construct: purchased BPS Bioscience 5006
T1 sequence (Q9UBN7 1-1215): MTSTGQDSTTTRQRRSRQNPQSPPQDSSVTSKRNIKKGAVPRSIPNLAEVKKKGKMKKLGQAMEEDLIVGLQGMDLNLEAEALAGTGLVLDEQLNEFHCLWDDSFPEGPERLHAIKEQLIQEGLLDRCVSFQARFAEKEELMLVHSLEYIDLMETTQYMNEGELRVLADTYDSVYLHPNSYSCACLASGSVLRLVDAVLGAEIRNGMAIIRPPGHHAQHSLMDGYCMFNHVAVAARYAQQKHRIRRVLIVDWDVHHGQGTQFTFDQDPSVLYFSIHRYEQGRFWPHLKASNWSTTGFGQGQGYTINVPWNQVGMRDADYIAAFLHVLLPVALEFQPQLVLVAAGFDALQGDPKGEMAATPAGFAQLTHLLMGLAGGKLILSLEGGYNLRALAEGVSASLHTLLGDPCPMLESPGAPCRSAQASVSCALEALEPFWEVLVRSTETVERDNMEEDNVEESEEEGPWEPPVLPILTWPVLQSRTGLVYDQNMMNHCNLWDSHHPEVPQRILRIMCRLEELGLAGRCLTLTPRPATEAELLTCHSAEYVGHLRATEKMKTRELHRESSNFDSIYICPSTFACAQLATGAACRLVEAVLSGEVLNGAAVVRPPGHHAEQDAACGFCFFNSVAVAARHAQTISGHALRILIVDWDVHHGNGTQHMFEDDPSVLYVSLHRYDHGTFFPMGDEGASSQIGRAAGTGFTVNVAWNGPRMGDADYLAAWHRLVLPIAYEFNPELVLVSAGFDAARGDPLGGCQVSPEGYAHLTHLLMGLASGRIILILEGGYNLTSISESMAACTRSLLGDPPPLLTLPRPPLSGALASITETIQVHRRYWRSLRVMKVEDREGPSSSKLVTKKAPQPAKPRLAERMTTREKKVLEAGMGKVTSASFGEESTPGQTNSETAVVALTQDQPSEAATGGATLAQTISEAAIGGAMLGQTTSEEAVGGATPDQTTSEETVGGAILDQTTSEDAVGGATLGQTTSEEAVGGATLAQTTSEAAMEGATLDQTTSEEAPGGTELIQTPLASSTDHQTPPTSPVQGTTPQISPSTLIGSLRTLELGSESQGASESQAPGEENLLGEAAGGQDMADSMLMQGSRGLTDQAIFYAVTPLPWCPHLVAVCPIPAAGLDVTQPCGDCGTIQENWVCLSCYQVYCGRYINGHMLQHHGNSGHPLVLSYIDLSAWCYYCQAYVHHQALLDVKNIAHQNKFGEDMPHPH
The experiment in a line: HDAC6 Enzyme Assay. It is filed as biochemical. As to conditions: HDAC6 inhibition at a compound concentration of 0.412 μM; read-out: Percent Inhibition at 0.412 μM. On the procedure: To measure the inhibition of HDAC6 activity, purified human HDAC6 (BPS Bioscience; Cat. No. 5006) is incubated with substrate Ac-Arg-Gly-Lys(Ac)-AMC peptide (Bachem Biosciences; Cat. No. I-1925) for 1 hour at 30° C. in the presence of test compounds or vehicle DMSO control. The reaction is stopped with the HDAC inhibitor trichostatin A (Sigma; Cat. No. T8552) and the amount of Arg-Gly-Lys-AMC generated is quantitated by digestion with trypsin (Sigma; Cat. No. T1426) and subsequent measurement of the amount of AMC released using a fluorescent plate reader (Pherastar; BMG Technologies) set at Ex 340 nm and Em 460 nm. Concentration response curves are generated by calculating the fluorescence increase in test compound-treated samples relative to DMSO-treated controls, and enzyme inhibition (IC50) values are determined from those curves.
As usually defined, the inhibition is how much of the control response was suppressed. On to `O=C(NO)c1ccc2c(c1)CCC[C@H]2NC(=O)c1cc2cc(Cl)ccc2o1` [Compound I-63, 5-chloro-N-{(1R)-6-[(hydroxyamino)carbonyl]-1,2,3,4-tetrahydronaphthalen-1-yl}-1-benzofuran-2-carboxamide], for which the inhibition at 0.412 µM is 18%.
For `Cn1c(C(=O)N[C@@H]2CCCc3cc(C(=O)NO)ccc32)cc2ccccc21` [Compound I-64, N-{(1R)-6-[(hydroxyamino)carbonyl]-1,2,3,4-tetrahydronaphthalen-1-yl}-1-methyl-1H-indole-2-carboxamide], the inhibition at 0.412 µM is 18%.
As for `Cn1cccc1C(=O)N[C@@H]1CCCc2cc(C(=O)NO)ccc21` [Compound I-65, (R)-N-(6-(hydroxycarbamoyl)-1,2,3,4-tetrahydronaphthalen-1-yl)-1-methyl-1H-pyrrole-2-carboxamide], the inhibition at 0.412 µM was 16%.
Turning to `O=C(NO)c1ccc2c(c1)CCCC2` [Compound I-66, N-hydroxy-5,6,7,8-tetrahydronaphthalene-2-carboxamide], the inhibition at 0.412 µM turned out to be 49%.
Take `Cn1cccc1C(=O)N[C@H]1CCCc2cc(C(=O)NO)ccc21` [Compound I-67, N-{(1S)-6-[(hydroxyamino)carbonyl]-1,2,3,4-tetrahydronaphthalen-1-yl}-1-methyl-1H-pyrrole-2-carboxamide]: the inhibition at 0.412 µM came out at 26%.
Regarding `COc1ccccc1-c1cc(C(=O)N[C@H]2CCCc3cc(C(=O)NO)ccc32)[nH]n1` [Compound I-68, N-{(1S)-6-[(hydroxyamino)carbonyl]-1,2,3,4-tetrahydronaphthalen-1-yl}-3-(2-methoxyphenyl)-1H-pyrazole-5-carboxamide], the inhibition at 0.412 µM is 65%.
With `CC(C)(Oc1ccccc1Cl)C(=O)N[C@H]1CCCc2cc(C(=O)NO)ccc21` [Compound I-69, (5S)-5-{[2-(2-chlorophenoxy)-2-methylpropanoyl]amino}-N-hydroxy-5,6,7,8-tetrahydronaphthalene-2-carboxamide], the inhibition at 0.412 µM was 44%.
Regarding `O=C(NO)c1ccc2c(c1)CCC[C@@H]2NC(=O)c1cn2cc(Cl)ccc2n1` [Compound I-70, 6-chloro-N-{(1S)-6-[(hydroxyamino)carbonyl]-1,2,3,4-tetrahydronaphthalen-1-yl}imidazo[1,2-a]pyridine-2-carboxamide], the inhibition at 0.412 µM came out at 63%.
The value for `O=C(NO)c1ccc2c(c1)CCC[C@@H]2NC(=O)c1cc(-c2ccc(F)cc2)n[nH]1` [Compound I-71, 3-(4-fluorophenyl)-N-{(1S)-6-[(hydroxyamino)carbonyl]-1,2,3,4-tetrahydronaphthalen-1-yl}-1H-pyrazole-5-carboxamide] was 60%.
Regarding `Cc1ccc(-c2cc(C(=O)N[C@H]3CCCc4cc(C(=O)NO)ccc43)[nH]n2)cc1` [Compound I-72, N-{(1S)-6-[(hydroxyamino)carbonyl]-1,2,3,4-tetrahydronaphthalen-1-yl}-3-(4-methylphenyl)-1H-pyrazole-5-carboxamide], the inhibition at 0.412 µM amounted to 54%.
For `CC(C)(C)C(=O)N[C@@H]1CCc2ccc(C(=O)NO)cc2C1` [Compound I-73, (7R)-7-[(2,2-dimethylpropanoyl)amino]-N-hydroxy-5,6,7,8-tetrahydronaphthalene-2-carboxamide], the inhibition at 0.412 µM is 73%.
As to `CC1(C)CCC(C)(C)c2cc(C(=O)NO)ccc21` [Compound I-74, N-hydroxy-5,5,8,8-tetramethyl-5,6,7,8-tetrahydronaphthalene-2-carboxamide], the inhibition at 0.412 µM was determined as 20%.
Regarding `CC(C)(C)C(=O)N[C@H]1CCc2ccc(C(=O)NO)cc2C1` [Compound I-75, (7S)-7-[(2,2-dimethylpropanoyl)amino]-N-hydroxy-5,6,7,8-tetrahydronaphthalene-2-carboxamide], the inhibition at 0.412 µM turned out to be 90%.
On to `O=C(NO)c1ccc2c(c1)CC(NCc1ccc(Cl)cc1)CC2` (centres unmarked) [Compound I-76, 7-[(4-chlorobenzyl)amino]-N-hydroxy-5,6,7,8-tetrahydronaphthalene-2-carboxamide], for which the inhibition at 0.412 µM was 80%.
As for `COc1ccc(C(=O)NC2CCc3ccc(C(=O)NO)cc3C2)cc1` (centres unmarked) [Compound I-77, N-hydroxy-7-[(4-methoxybenzoyl)amino]-5,6,7,8-tetrahydronaphthalene-2-carboxamide], the inhibition at 0.412 µM was 92%.
Next, `CN(C)Cc1cc(C(=O)NC2CCc3ccc(C(=O)NO)cc3C2)cc(C(F)(F)F)c1` (centres unmarked) [Compound I-78, 7-{[3-[(dimethylamino)methyl]-5-(trifluoromethyl)benzoyl]amino}-N-hydroxy-5,6,7,8-tetrahydronaphthalene-2-carboxamide]: 88%; `Cn1cc(-c2cc(C(=O)NC3CCc4ccc(C(=O)NO)cc4C3)cc(C(F)(F)F)c2)cn1` (centres unmarked) [Compound I-79, N-hydroxy-7-{[3-(1-methyl-1H-pyrazol-4-yl)-5-(trifluoromethyl)benzoyl]amino}-5,6,7,8-tetrahydronaphthalene-2-carboxamide]: 94%; `CN(C)C1CCc2ccc(C(=O)NO)cc2C1` (centres unmarked) [Compound I-80, 7-(dimethylamino)-N-hydroxy-5,6,7,8-tetrahydronaphthalene-2-carboxamide]: 43%.
The value for `O=C(NO)c1ccc2c(c1)CC(NCCc1ccccc1)CC2` (centres unmarked) [Compound I-81, N-hydroxy-7-[(2-phenylethyl)amino]-5,6,7,8-tetrahydronaphthalene-2-carboxamide] was 84%.
Consider `O=C(NO)c1ccc2c(c1)CC(Nc1cccc(Cl)c1)CC2` (centres unmarked) [Compound I-82, 7-[(3-chlorophenyl)amino]-N-hydroxy-5,6,7,8-tetrahydronaphthalene-2-carboxamide], for which the inhibition at 0.412 µM worked out at 85%.
`O=C(NO)c1ccc2c(c1)CC(Nc1ccc(Cl)cc1)CC2` (centres unmarked) [Compound I-83, 7-[(4-chlorophenyl)amino]-N-hydroxy-5,6,7,8-tetrahydronaphthalene-2-carboxamide]: the inhibition at 0.412 µM came out at 86%.
Consider `COc1cccc(NC2CCc3ccc(C(=O)NO)cc3C2)c1` (centres unmarked) [Compound I-84, N-hydroxy-7-[(3-methoxyphenyl)amino]-5,6,7,8-tetrahydronaphthalene-2-carboxamide], for which the inhibition at 0.412 µM turned out to be 82%.
As for `O=C(NO)c1ccc2c(c1)CC(NCc1ccncc1)CC2` (centres unmarked) [Compound I-85, N-hydroxy-7-[(pyridin-4-ylmethyl)amino]-5,6,7,8-tetrahydronaphthalene-2-carboxamide], the inhibition at 0.412 µM was 75%.
As for `O=C(NO)c1ccc2c(c1)CC(Oc1ccncc1)CC2` (centres unmarked) [Compound I-86, N-hydroxy-7-(pyridin-4-yloxy)-5,6,7,8-tetrahydronaphthalene-2-carboxamide], the inhibition at 0.412 µM was determined as 91%.
The value for `O=C(NO)c1ccc2c(c1)CC(Oc1ccccc1)CC2` (centres unmarked) [Compound I-87, N-hydroxy-7-phenoxy-5,6,7,8-tetrahydronaphthalene-2-carboxamide] was 92%.
For `O=C(NO)c1ccc2c(c1)CC(c1ccncc1)CC2` (centres unmarked) [Compound I-88, N-hydroxy-7-pyridin-4-yl-5,6,7,8-tetrahydronaphthalene-2-carboxamide], the inhibition at 0.412 µM amounted to 89%.
Turning to `O=C(NO)c1ccc2c(c1)CC(c1ccccc1)CC2` (centres unmarked) [Compound I-89, N-hydroxy-7-phenyl-5,6,7,8-tetrahydronaphthalene-2-carboxamide], the inhibition at 0.412 µM was found to be 84%.
As to `O=C(NO)c1ccc2c(c1)CC(c1ccc(Cl)cc1)CC2` (centres unmarked) [Compound I-90, 7-(4-chlorophenyl)-N-hydroxy-5,6,7,8-tetrahydronaphthalene-2-carboxamide], the inhibition at 0.412 µM came out at 82%.
`O=C(NO)c1ccc2c(c1)CC(Oc1ccc(Cl)cc1)CC2` (centres unmarked) [Compound I-91, 7-(4-chlorophenoxy)-N-hydroxy-5,6,7,8-tetrahydronaphthalene-2-carboxamide]: the inhibition at 0.412 µM was 93%.
